Data reported in patent US20220288207A1, “PHOTO INDUCED CONTROL OF PROTEIN DESTRUCTION” (Beth Israel Deaconess Medical Center, Inc., priority 2019, published 2022).
“Also recorded” adds a separate entry of the source. Blank lines part the entries; values can stand above or below the molecule they belong to.

Legend:
[1] = Uncaging (photolysis) by UVA irradiation in vitro, UV-VIS absorption / UPLC-MS analysis; type: physicochemical; details: 1 mM, UVA 365 nm, time course
Procedure: HPLC spectra were acquired using an Agilent 1200 Series system with DAD detector for all the intermediates and Opto-PROTACs below. Chromatography was performed on a 2.1×150 mm Zorbax 300SB-C18 5 μm column with water containing 0.1% formic acid as solvent A and acetonitrile containing 0.1% formic acid as solvent B at a flow rate of 0.4 ml/min. The gradient program was as follows: 1% B (0-1 min), 1-99% B (1-4 min), and 99% B (4-8 min). High-resolution mass spectra (FIRMS) data were acquired in positive ion mode using an Agilent G1969A API-TOF with an electrospray ionization (ESI) source. Nuclear Magnetic Resonance (NMR) spectra were acquired on a Bruker DRX-600 spectrometer with 600 MHz for proton (^1H NMR) and 151 MHz for carbon (^13C NMR); chemical shifts are reported in (δ). Preparative HPLC was performed on Agilent Prep 1200 series with UV detector set to 254 nm. Samples were injected onto a Phenomenex Luna 250×30 mm, 5 μm, C18 column at room temperature. The flow rate was 40 ml/min. A linear gradient was used with 10% of acetonitrile (A) in H2O (with 0.1% TFA) (B) to 100% of acetonitrile (A). HPLC was used to establish the purity of target compounds. All final compounds had >95% purity using the HPLC methods described above.
(§1) UV-Vis spectrometry was performed on a NanoDrop-2000 UV-Visible Spectrophotometer. Pomalidomide, opto-pomalidomide, dBET1, opto-dBET1, dALK and opto-dALK were dissolved in DMSO and diluted to indicated concentration, followed by UVA irradiation for indicated duration of time. Then the samples were subjected to UV-Vis spectrometry analysis. Pomalidomide and opto-pomalidomide mixture solutions were made with the indicated ratio. Absorption values at 364 nm were measured to draw standard curve. dBET1 and opto-dBET1 mixture solution were made with the indicated ratios. Absorption values at 340 nm were measured to draw standard curve. dALK and opto-dALK mixture solution were made with indicated ratio. Absorption values at 370 nm were measured to draw standard curve.

BRD2 and BRD3 = assay: In vivo ubiquitination assay of BRD2 and BRD3 by CRBN in HEK293T cells (Ni-NTA pull down); type: cell-based, Human
Procedure: (§2) Denatured in vivo ubiquitination assays were performed as described in H. Inuzuka et al., Cell 150 (2012): 179, hereby incorporated by reference in its entirety and specifically in relation to ubiquitination assays. Briefly, HEK293T cells were transfected with Flag-CRBN, His-ubiquitin and HA-IKZF1 or GFP-BRD2 or GFP-BRD3. 24 hours after transfection, pomalidomide, opto-pomalidomide, dBET1 or opto-dBET1 were added to the cell culture together with 10 μM MG132 for 12 hours and cells were harvested in denatured buffer A (6 M guanidine-HCl, pH 8.0, 0.1 M Na2HPO4/NaH2PO4, 10 mM imidazole). After sonication, the ubiquitinated proteins were purified by incubation with Ni-NTA matrices for 3 hours at room temperature. The pull-down products were washed sequentially twice in buffer A, twice in buffer ANTI mixture (buffer A: buffer TI=1:3) and once in buffer TI (25 mM Tris-HCl, pH 6.8, 20 mM imidazole). The poly-ubiquitinated proteins were separated by SDS-PAGE for immunoblot analysis.

BRD3/4 = BRD3/4 degradation, immunoblot of 293FT cells; type: cell-based, Human
Procedure: (§3) Human embryonic kidney 293T (HEK293T) cells and HEK293FT were maintained in Dulbecco's Modified Eagle's Medium (DMEM) containing 10% fetal bovine serum (FBS), 100 Units of penicillin and […] streptomycin. MM.1S, MT2, C4-2, NCI-H2228 and NCI-H3122 cells were cultured in RPMI1640 containing 10% fetal bovine serum (FBS), 100 Units of penicillin and 100 μg/ml streptomycin. 293FT^CRBN+/+, 293FT^CRBN+/+ , MM.1S^CRBN+/+ and MM.1S^CRBN−/− cells were provided Dr. William G. Kaelin (Dana-Farber Cancer Institute). For UVA irradiation, cells were pretreated with opto-PROTACs for 2-4 hours, and then subjected to UVA irradiation for indicated durations.
(§4) Cells were lysed in EBC lysis buffer (50 mM Tris pH 7.5, 120 mM NaCl, 0.5% NP-40), supplemented with protease inhibitors (cOmplete Mini, Roche) and phosphatase inhibitors (phosphatase inhibitor cocktail set I and II, Calbiochem). The protein concentrations of the lysates were measured using the Bio-Rad protein assay reagent on a Beckman Coulter DU-800 spectrophotometer. The lysates were then resolved by sodium dodecylsulfate-polyacrylamide gel ectrophoresis (SDS-PAGE) and immunoblotted with indicated antibodies. For immunoprecipitation, 1 mg lysates were incubated with the appropriate sepharose beads for 4 h at 4° C. Immuno-complexes were washed four times with NETN lysis buffer (20 mM Tris, pH 8.0, 100 mM NaCl, 1 mM EDTA and 0.5% NP-40) before being resolved by SDS-PAGE and immunoblotted with indicated antibodies.

HEK293FT cells = assay: CCK-8 cell viability assay, HEK293FT cells; type: cell-based, Human
Procedure: as §3
(§5) Cell in 96-well plates were incubated with 10 ul/well of CCK-8 solution and incubated for 2 hours, followed by the measurement of optical density using a microplate reader with a 450 nm filter (O.D. 450).

C4-2 cells = assay: CCK-8 cell viability assay, C4-2 cells; type: cell-based
Procedure: as §3, §5

NCI-H2228 cells = assay: CCK-8 cell viability assay, NCI-H2228 cells; type: cell-based
Procedure: as §3, §5

NCI-H3122 cells = assay: CCK-8 cell viability assay, NCI-H3122 cells; type: cell-based
Procedure: as §3, §5

[2] = UV-VIS absorption spectrum; type: physicochemical; details: in DMSO
Procedure: as §1

CRBN and IKZF1 = target: T1, CRBN and IKZF1 (Homo sapiens, UniProt Q13422+Q96SW2); assay: CRBN-IKZF1 interaction, Flag-IP and immunoblot in HEK293T cells; type: cell-based; details: without UVA irradiation, 10 μM MG132 12 hours
T1 construct: expressed in transfected cells; host or cells: HEK293T
T1 sequence (Q96SW2 whole entry): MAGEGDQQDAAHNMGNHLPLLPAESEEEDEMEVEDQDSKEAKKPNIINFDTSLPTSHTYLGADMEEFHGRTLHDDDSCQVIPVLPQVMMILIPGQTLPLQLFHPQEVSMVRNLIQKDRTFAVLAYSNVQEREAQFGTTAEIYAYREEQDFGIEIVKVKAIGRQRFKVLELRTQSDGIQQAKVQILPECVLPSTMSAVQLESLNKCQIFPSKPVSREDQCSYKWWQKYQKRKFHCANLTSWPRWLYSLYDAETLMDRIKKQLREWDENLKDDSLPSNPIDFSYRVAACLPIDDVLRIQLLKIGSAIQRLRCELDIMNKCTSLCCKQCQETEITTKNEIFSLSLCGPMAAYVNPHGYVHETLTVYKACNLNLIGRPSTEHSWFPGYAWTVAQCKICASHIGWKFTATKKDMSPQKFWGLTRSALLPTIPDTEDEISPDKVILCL
T1 sequence (Q13422 whole entry): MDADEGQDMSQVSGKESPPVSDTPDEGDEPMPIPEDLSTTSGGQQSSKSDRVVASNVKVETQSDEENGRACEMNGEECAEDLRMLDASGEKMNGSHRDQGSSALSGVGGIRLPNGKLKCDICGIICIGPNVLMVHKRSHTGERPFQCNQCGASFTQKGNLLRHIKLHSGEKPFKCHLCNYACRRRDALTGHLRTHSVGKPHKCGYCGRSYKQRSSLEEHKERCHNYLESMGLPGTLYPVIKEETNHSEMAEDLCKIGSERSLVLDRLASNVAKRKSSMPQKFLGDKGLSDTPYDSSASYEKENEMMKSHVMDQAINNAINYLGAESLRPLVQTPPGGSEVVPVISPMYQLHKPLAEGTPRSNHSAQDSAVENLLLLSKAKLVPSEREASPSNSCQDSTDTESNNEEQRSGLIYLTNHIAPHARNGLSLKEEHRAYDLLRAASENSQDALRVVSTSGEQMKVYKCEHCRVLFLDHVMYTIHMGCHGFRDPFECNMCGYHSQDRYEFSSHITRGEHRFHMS
T1 sequence (Q16531 whole entry partner): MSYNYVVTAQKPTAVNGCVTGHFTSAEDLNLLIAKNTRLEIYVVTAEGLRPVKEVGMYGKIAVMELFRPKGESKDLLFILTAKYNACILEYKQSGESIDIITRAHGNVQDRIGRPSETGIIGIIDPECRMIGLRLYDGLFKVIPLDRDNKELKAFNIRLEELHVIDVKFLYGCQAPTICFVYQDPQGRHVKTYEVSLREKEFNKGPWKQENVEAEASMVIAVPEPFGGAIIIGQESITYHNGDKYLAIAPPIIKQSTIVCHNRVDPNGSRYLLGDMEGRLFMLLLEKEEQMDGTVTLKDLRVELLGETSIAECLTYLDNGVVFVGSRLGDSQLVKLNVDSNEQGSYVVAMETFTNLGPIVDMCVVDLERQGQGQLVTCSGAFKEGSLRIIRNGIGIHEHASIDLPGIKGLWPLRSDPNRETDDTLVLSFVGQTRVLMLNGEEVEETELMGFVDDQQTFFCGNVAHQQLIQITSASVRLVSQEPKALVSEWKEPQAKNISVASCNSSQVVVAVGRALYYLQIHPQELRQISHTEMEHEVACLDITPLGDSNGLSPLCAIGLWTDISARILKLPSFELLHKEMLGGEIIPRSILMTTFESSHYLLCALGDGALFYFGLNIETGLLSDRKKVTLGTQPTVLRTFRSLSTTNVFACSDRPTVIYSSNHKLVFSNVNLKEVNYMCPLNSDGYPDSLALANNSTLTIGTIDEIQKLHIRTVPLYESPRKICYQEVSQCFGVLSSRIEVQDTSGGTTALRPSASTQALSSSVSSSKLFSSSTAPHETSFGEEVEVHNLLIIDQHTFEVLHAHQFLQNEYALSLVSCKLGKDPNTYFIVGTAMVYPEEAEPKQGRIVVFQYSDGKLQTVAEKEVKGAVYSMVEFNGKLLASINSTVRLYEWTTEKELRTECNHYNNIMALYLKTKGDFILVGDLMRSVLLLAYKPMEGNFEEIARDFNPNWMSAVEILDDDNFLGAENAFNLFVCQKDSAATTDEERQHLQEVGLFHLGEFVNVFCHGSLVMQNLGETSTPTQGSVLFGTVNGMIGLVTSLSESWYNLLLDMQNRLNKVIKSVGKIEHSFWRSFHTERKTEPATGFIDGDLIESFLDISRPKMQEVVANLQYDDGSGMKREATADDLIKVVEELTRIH
Procedure: (§6) MM.1S, MT2, C4-2, NCI-H2228 and NCI-H3122 cells were cultured in RPMI1640 containing 10% fetal bovine serum (FBS), 100 Units of penicillin and 100 μg/ml streptomycin. […] For UVA irradiation, cells were pretreated with opto-PROTACs for 2-4 hours, and then subjected to UVA irradiation for indicated durations.
as §4

IKZF1/3 = IKZF1/3 degradation, immunoblot of MM1S cells; type: cell-based; details: MM1S-CRBN+/+ vs. MM1S-CRBN−/− cells, 12 hours, without UVA irradiation; opto-drug up to 10-fold excess
Procedure: as §6, §4

MM1S cells = assay: CCK-8 cell viability assay, MM1S cells; type: cell-based; details: MM1S-CRBN+/+ and MM1S-CRBN−/− cells, 72 hours, without UVA irradiation
Procedure: as §3, §5

IKZF1 = IKZF1 (Homo sapiens, UniProt Q13422+Q96SW2); assay: In vivo ubiquitination assay of IKZF1 by CRBN in HEK293T cells (Ni-NTA pull down); type: cell-based; design: expressed in transfected cells; host or cells: HEK293T; details: without UVA irradiation
Chain of IKZF1 (Q13422 whole entry): as the sequence (Q13422 whole entry) above
Chain of IKZF1 (Q96SW2 whole entry): as the sequence (Q96SW2 whole entry) above
Chain of IKZF1 (Q16531 whole entry partner): as the sequence (Q16531 whole entry partner) above
Procedure: as §2, with “Briefly,” for “Denatured in vivo ubiquitination assays were performed as described in H. Inuzuka et al., Cell 150 (2012): 179, hereby incorporated by reference in its entirety and specifically in relation to ubiquitination assays. Briefly,”

[3] = 293FT-CRBN+/+ vs. 293FT-CRBN−/− cells, 12 hours, without UVA irradiation
[4] = HEK293FT (293FT-CRBN+/+ and CRBN−/−) cells, without UVA irradiation
[5] = UVA irradiation (365 nm) 15 minutes
[6] = 72 hours, without UVA irradiation

SMILES: COc1cc(COC(=O)N2C(=O)CCC(N3C(=O)c4cccc(OCC(=O)NCCCCNC(=O)C[C@@H]5N=C(c6ccc(Cl)cc6)c6c(sc(C)c6C)-n6c(C)nnc65)c4C3=O)C2=O)c([N+](=O)[O-])cc1OC (some centres unmarked) [opto-dBET1]
uncaging (photolysis) by UVA irradiation in vitro [1]: efficiently uncaged by UVA irradiation in vitro
ubiquitination of BRD2 and BRD3 by CRBN (BRD2 and BRD3; UVA irradiation (365 nm) 15 min): regained its ability to promote ubiquitination of BRDs in cells
ubiquitination of BRD2 and BRD3 by CRBN (BRD2 and BRD3; without UVA irradiation): incapable of guiding the ubiquitination of BRD2 and BRD3
degradation of BRD3/4 (BRD3/4; [3]): largely inert and incapable of degrading BRD3/4
degradation of BRD3/4 (BRD3/4; HEK293FT cells, UVA irradiation (365 nm) 5 or 15 minutes): leading to the degradation of BRD3/4
cell proliferation (CCK-8) (HEK293FT cells; [4]): relatively less toxic; also recorded: did not inhibit cell proliferation in 293FT-CRBN^+/+ and 293FT-CRBN^−/− cells
cell proliferation (CCK-8) (HEK293FT cells; HEK293FT cells, UVA irradiation (365 nm) 15 minutes): could be activated by UVA irradiation to suppress cell proliferation; also recorded: inhibits HEK293FT (J) and C4-2 (K) cell proliferation in a dose-dependent manner
cell proliferation (CCK-8) (C4-2 cells; [5]): could be activated by UVA irradiation to suppress cell proliferation; also recorded: inhibits HEK293FT (J) and C4-2 (K) cell proliferation in a dose-dependent manner
cell proliferation (CCK-8) (C4-2 cells; without UVA irradiation): relatively less toxic

SMILES: COc1cc(COC(=O)N2C(=O)CCC(N3C(=O)c4cccc(NCCNC(=O)CN5CCC(c6cc(OC(C)C)c(Nc7ncc(Cl)c(Nc8ccccc8S(=O)(=O)C(C)C)n7)cc6C)CC5)c4C3=O)C2=O)c([N+](=O)[O-])cc1OC (centres unmarked) [opto-dALK]
uncaging (photolysis) by UVA irradiation in vitro [1]: efficiently uncaged by UVA irradiation in vitro
cell proliferation (CCK-8) (NCI-H2228 cells; [6]): inefficient in inhibiting the proliferation of H2228 (C) or NCI-3122 (D)
cell proliferation (CCK-8) (NCI-H2228 cells; [5]): required prior uncaging by UVA irradiation; also recorded: inhibits H2228 (E) or NCI-3122 (F) cell proliferation in a dose-dependent manner
cell proliferation (CCK-8) (NCI-H3122 cells; [6]): inefficient in inhibiting the proliferation of H2228 (C) or NCI-3122 (D)
cell proliferation (CCK-8) (NCI-H3122 cells; [5]): required prior uncaging by UVA irradiation; also recorded: inhibits H2228 (E) or NCI-3122 (F) cell proliferation in a dose-dependent manner

maximum in absorption of UV-VIS absorption spectrum [2]: 390 nm
interaction between CRBN and IKZF1 (CRBN and IKZF1): bound both CRBN and IKZF1/3
SMILES: Nc1cccc2c1C(=O)N(C1CCC(=O)NC1=O)C2=O (centres unmarked) [pomalidomide, reference compound]
degradation of IKZF1/3 (IKZF1/3): induced IKZF1/3 degradation in a CRBN-dependent manner
cell proliferation (CCK-8) (MM1S cells): reduces MM1S cell proliferation in a CRBN-dependent manner
ubiquitination of IKZF1 by CRBN (IKZF1): subsequently transfer the ubiquitin chain onto the target proteins, IKZFs

SMILES: Cc1sc2c(c1C)C(c1ccc(Cl)cc1)=N[C@@H](CC(=O)NCCCCNC(=O)COc1cccc3c1C(=O)N(C1CCC(=O)NC1=O)C3=O)c1nnc(C)n1-2 (some centres unmarked) [dBET1, reference compound]
ubiquitination of BRD2 and BRD3 by CRBN (BRD2 and BRD3; without UVA irradiation): function as a molecular linker between a protein targeting moiety that recruits bromodomain family members (BRD2/3) (JQ1 derived) and CRBN-mediated ubiquitination
degradation of BRD3/4 (BRD3/4; [3]): degraded BRD 3/4 in a CRBN-dependent manner
cell proliferation (CCK-8) (HEK293FT cells; [4]): inhibited cell proliferation in a dose-dependent manner; also recorded: inhibits cell proliferation in 293FT-CRBN^+/+ but not 293FT-CRBN^−/− cells
cell proliferation (CCK-8) (C4-2 cells; without UVA irradiation): inhibited cell proliferation in a dose-dependent manner
